Target: SARS-CoV-2 3CL-protease (Severe acute respiratory syndrome coronavirus 2 (2019-nCoV) (SARS-CoV-2), UniProt P0DTD1)
Test: SARS-CoV-2 3C-like (3CL) protease fluorescence assay (FRET)
Format: biochemical
Settings: recombinant SARS-CoV-2 3CL-protease 10 nM, 30 min preincubation at RT, run in duplicate
Experimental: SARS-CoV-2 3C-like (3CL) protease fluorescence assay (FRET): Recombinant SARS-CoV-2 3CL-protease was expressed and purified. TAMRA-[…]-Dabcyl-OH peptide 3CLpro substrate was synthesized. Black, low volume, round-bottom, 384 well microplates were used. In a typical assay, 0.85 μL of test compound was dissolved in DMSO then incubated with SARS-CoV-2 3CL-protease (10 nM) in 10 μL assay buffer (50 mM HEPES [pH 7.5], 1 mM DTT, 0.01% BSA, 0.01% Triton-X 100) for 30 min at RT. Next, 10 μL of 3CL-protease substrate (40 μM) in assay buffer was added and the assays were monitored continuously for 1 h in an Envision multimode plate reader operating in fluorescence kinetics mode with excitation at 540 nm and emission at 580 nm at RT. No compound (DMSO only) and no enzyme controls were routinely included in each plate. All experiments were run in duplicate. Data Analysis: SARS-CoV-2 3CL-protease enzyme activity was measured as initial velocity of the linear phase (RFU/s) and normalized to controlled samples DMSO (100% activity) and no enzyme (0% activity) to determine percent residual activity at various concentrations of test compounds (0-10 μM). Data were fitted to normalized activity (variable slope) versus concentration fit in GraphPad Prism 7 to determine IC50.

[1] = TAMRA-SITSAVLQSGFRKMK-Dabcyl-OH substrate

| SMILES | IC50 (TAMRA-[…]-Dabcyl-OH substrate) [nM] | IC50 [1] [nM] |
| --- | --- | --- |
| CC(C)C[C@@H](C(=O)N1C[C@]2(C[C@H]1C#N)C(=O)Nc1ccccc12)N1CCc2cccc(F)c2C1=O [Compound 1, (3R,5'S)-1′-((S)-2-(8-fluoro-1-oxo-3,4-dihydroisoquinolin-2(1H)-yl)-4-methylpentanoyl)-2-oxospiro[indoline-3,3′-pyrrolidine]-5′-carbonitrile] | 100 to 1000 |  |
| CC(C)C[C@@H](C(=O)N1C[C@]2(C[C@H]1C#N)C(=O)Nc1ccccc12)N1CCc2ccc(F)cc2C1=O [Compound 2] | < 100 |  |
| CC(C)C[C@@H](C(=O)N1C[C@]2(C[C@H]1C#N)C(=O)Nc1ccccc12)N1CCc2c(F)cccc2C1=O [Compound 3] | < 100 |  |
| CC(C)C[C@@H](C(=O)N1C[C@]2(C[C@H]1C#N)C(=O)Nc1ccccc12)N1CCc2cc(F)ccc2C1=O [Compound 4] | < 100 |  |
| CC(C)(C)C[C@@H](C(=O)N1C[C@]2(C[C@H]1C#N)C(=O)Nc1ccccc12)N1CCc2c(F)cccc2C1=O [Compound 5] | < 100 |  |
| CC(C)(C)C[C@@H](C(=O)N1C[C@]2(C[C@H]1C#N)C(=O)Nc1ccccc12)N1CCc2cc(F)ccc2C1=O [Compound 6] | < 100 |  |
| CC(C)(C)C[C@@H](C(=O)N1C[C@]2(C[C@H]1C#N)C(=O)Nc1ccccc12)N1CCc2ccc(F)cc2C1=O [Compound 7] | < 100 |  |
| CC(C)(C)C[C@@H](C(=O)N1C[C@]2(C[C@H]1C#N)C(=O)Nc1ccccc12)N1CCc2cccc(F)c2C1=O [Compound 8] | 100 to 1000 |  |
| CC(C)C[C@@H](C(=O)N1C[C@]2(C[C@H]1C#N)C(=O)Nc1ccccc12)N1Cc2cc(Br)ccc2C1=O [Compound 9, (3R,5'S)-1′-((S)-2-(5-bromo-1-oxoisoindolin-2-yl)-4-methylpentanoyl) oxospiro[indoline-3,3′-pyrrolidine]-5′-carbonitrile] |  | < 100 |
| CC(C)C[C@@H](C(=O)N1C[C@]2(C[C@H]1C#N)C(=O)Nc1ccccc12)N1Cc2c(cccc2C(F)(F)F)C1=O [Compound 10] | < 100 |  |
| CC(C)(C)C[C@@H](C(=O)N1C[C@]2(C[C@H]1C#N)C(=O)Nc1ccccc12)N1Cc2c(cccc2C(F)(F)F)C1=O [Compound 11] | < 100 |  |
| CC(C)(C)C[C@@H](C(=O)N1C[C@]2(C[C@H]1C#N)C(=O)Nc1ccccc12)N1Cc2cc(Cl)ccc2C1=O [Compound 12] | < 100 |  |
| CC(C)(F)C[C@@H](C(=O)N1C[C@]2(C[C@H]1C#N)C(=O)Nc1ccccc12)N1Cc2cc(Cl)ccc2C1=O [Compound 13] | < 100 |  |
| CC(C)(F)C[C@@H](C(=O)N1C[C@]2(C[C@H]1C#N)C(=O)Nc1ccccc12)N1Cc2c(Cl)cccc2C1=O [Compound 14] | < 100 |  |
| CC(C)(F)C[C@@H](C(=O)N1C[C@]2(C[C@H]1C#N)C(=O)Nc1ccccc12)N1Cc2ccc(Cl)cc2C1=O [Compound 15] | < 100 |  |
| CC(C)(F)C[C@@H](C(=O)N1C[C@]2(C[C@H]1C#N)C(=O)Nc1ccccc12)N1Cc2cccc(Cl)c2C1=O [Compound 16] | 100 to 1000 |  |
| COc1ccc2c(c1)CN([C@@H](CC(C)(C)C)C(=O)N1C[C@]3(C[C@H]1C#N)C(=O)Nc1ccccc13)C2=O [Compound 17] | < 100 |  |
| COc1ccc2c(c1)C(=O)N([C@@H](CC(C)(C)C)C(=O)N1C[C@]3(C[C@H]1C#N)C(=O)Nc1ccccc13)C2 [Compound 18] | < 100 |  |
| COc1cccc2c1CN([C@@H](CC(C)(C)C)C(=O)N1C[C@]3(C[C@H]1C#N)C(=O)Nc1ccccc13)C2=O [Compound 19] | < 100 |  |
| CC(C)(C)C[C@@H](C(=O)N1C[C@]2(C[C@H]1C#N)C(=O)Nc1ccccc12)N1Cc2cccnc2C1=O [Compound 20] | 100 to 1000 |  |
| CC(C)(F)C[C@@H](C(=O)N1C[C@]2(C[C@H]1C#N)C(=O)Nc1ccccc12)N1Cc2ncc(Cl)cc2C1=O [Compound 21] | < 100 |  |
| CC(C)C[C@@H](C(=O)N1C[C@]2(C[C@H]1C#N)C(=O)Nc1ccccc12)N1C(=O)c2ccccc2[C@H]1C [Compound 22-a, (3R,5'S)-1′-((S)-4-methyl-2-((R)-1-methyl-3-oxoisoindolin-2-yl)pentanoyl)-2-oxospiro[indoline-3,3′-pyrrolidine]-5′-carbonitrile] | < 100 |  |
| CC(C)C[C@@H](C(=O)N1C[C@]2(C[C@H]1C#N)C(=O)Nc1ccccc12)N1C(=O)c2ccccc2[C@@H]1C [Compound 22-b, (3R,5'S)-1′-((S)-4-methyl-2-((S)-1-methyl-3-oxoisoindolin-2-yl)pentanoyl)-2-oxospiro[indoline-3,3′-pyrrolidine]-5′-carbonitrile] | < 100 |  |
| C=C1c2ccccc2C(=O)N1[C@@H](CC(C)C)C(=O)N1C[C@]2(C[C@H]1C#N)C(=O)Nc1ccccc12 [Compound 22-c, (3R,5'S)-1′-((S)-4-methyl-2-(1-methylene-3-oxoisoindolin-2-yl)pentanoyl)-2-oxospiro[indoline-3,3′-pyrrolidine]-5′-carbonitrile] | < 100 |  |
| CC(C)(C)C[C@@H](C(=O)N1C[C@]2(C[C@H]1C#N)C(=O)Nc1ccccc12)N1C(=O)c2ccc(F)cc2C1(C)C [Compound 23, (3R,5'S)-1′-((S)-2-(6-fluoro-1,1-dimethyl-3-oxoisoindolin-2-yl)-4,4-dimethylpentanoyl)-2-oxospiro[indoline-3,3′-pyrrolidine]-5′-carbonitrile] | 100 to 1000 |  |
| CC(C)C[C@@H](C(=O)N1C[C@]2(C[C@H]1C#N)C(=O)Nc1ccccc12)N1C(=O)c2ccc(F)cc2C1(C)C [Compound 24] | > 1000 |  |
| CC(C)C[C@H](C(=O)N1C[C@]2(C[C@H]1C#N)C(=O)Nc1ccccc12)n1cccc(-c2ccc(F)cc2)c1=O [Compound 25-b] |  | > 1000 |
| CC(C)C[C@@H](C(=O)N1C[C@]2(C[C@H]1C#N)C(=O)Nc1ccccc12)n1cccc(-c2ccncc2)c1=O [Compound 26-a] | 100 to 1000 |  |
| CC(C)C[C@H](C(=O)N1C[C@]2(C[C@H]1C#N)C(=O)Nc1ccccc12)n1cccc(-c2ccncc2)c1=O [Compound 26-b] | > 1000 |  |

— patent US12145941B2, “Heterocyclic antiviral agents” (ENANTA PHARMACEUTICALS, INC., priority 2021, dated 2024)
